As usually defined, the melting point is the temperature, or range, at which the solid turns liquid.

Each structure is given as a SMILES string.

`O=C1c2ccc(Sc3ccc(Cl)cc3)cc2C(=O)N1Cc1cccnc1` displayed a melting point of 115 to 118 °C.

Consider `COC(=O)C1=C(C)NC(C)=C(C(=O)OC/C=C/c2ccc(O)cc2)C1c1cccc([N+](=O)[O-])c1` (configuration not stated), for which the melting point is 138 to 139 °C.

`Cc1ccc2c(c1)NC(=O)c1cscc1O2` registered a melting point of 209 to 213 °C.

Turning to `C=Cc1cccc2c(Nc3ccc(O)cc3C)c(C(=O)CCC)cnc12`, the melting point lay in the range of 150 to 152 °C.

Consider `N#Cc1cc(O)cc2cc(-c3ccc(O)c(F)c3)oc12`, for which the melting point is > 300 °C.

On to `NC(=O)N1C(=O)C(=C(OC(=O)C=CC(=O)O)c2cccs2)c2cc(Cl)ccc21`, for which the melting point fell in the range of 198 to 200 °C.

Regarding `COc1ccc2c(ccn2-c2ccc(Br)cc2)c1`, the melting point is 90 to 91 °C.

The compound `Oc1ccc(OCCCCCCCCOc2ccc(O)cc2)cc1` displayed a melting point of 151 to 154 °C.

Take `O=C(Nc1cccc(C(F)(F)F)c1)N1CCN(Cc2ccc(Nc3ccnc4cc(C(F)(F)F)ccc34)cc2)CC1`: the melting point fell in the range of 198 to 200 °C.

`O=C(Cc1cccc2ccccc12)NC1CCC2(O)C3Cc4ccc(O)c5c4C2(CCN3CC2CC2)C1O5` (configuration not stated) showed a melting point of 213 to 215 °C.

Consider `CC(=O)Nc1ccc(/C=C/C(=O)NC/C=C(/C)c2ccc(C)c(CO)c2C)cn1`, for which the melting point is 160 to 165 °C.

In turn, `O=C1OCCC12Sc1cc(NO)ccc1C2=O` (configuration not stated) returned a melting point of 184 to 186 °C.

The compound `CNC(=O)c1ccccc1Nc1nc(Nc2ccc3c(c2)CCCC(=O)N3C)ncc1Br` had a melting point of 238 to 240 °C.

Turning to `Fc1cc2c(cc1F)CC(n1c(-c3nnn[nH]3)c[nH]c1=S)C2`, the melting point lay in the range of 142 to 147 °C.

As to `CCOC(=O)c1cc(NC(=O)c2ccc(C)cc2)ccc1N`, the melting point lay within 167 to 171 °C.

The compound `CCC(CCOc1ccc(-c2ccc(C(=O)O)cc2)cc1-c1ccc2c(c1)C(C)(C)CCC2(C)C)NC1CC1` (configuration not stated) had a melting point of 161 °C.

With `CN1C(=O)c2cscc2N(C(=O)Cc2ccccc2)c2ccccc21`, the melting point was in the range of 210 to 212 °C.

Compound `O=C1CN2Cc3c(ccc(OCC(=O)N(CCO)C4CCCCC4)c3Cl)N=C2N1` displayed a melting point of 237 to 239 °C.

Turning to `Cc1ccccc1C(O)C1CCN(C)CC1` (configuration not stated), the melting point lay in the range of 119 to 123 °C.

`CC(C)[Si](Oc1c(F)cc([C@@H](O)[C@@H](C)N2CCC(O)(c3ccc(Cl)cc3)CC2)cc1F)(C(C)C)C(C)C` (relative stereo) had a melting point of 192 °C.

`COCC1=C(C(=O)OC)C(c2ccccc2Cl)c2c[nH]nc2N1` (configuration not stated) showed a melting point of 160 °C.

Take `Cc1nc2cccc3n(CCCNS(=O)(=O)C(F)(F)F)c(=O)c1n23`: the melting point lay in the range of 168 to 169 °C.

`CN1C(=O)C(NC(=O)Nc2cccc(I)c2)N=C(N2CC3CCC(CC3)C2)c2ccccc21` (single isomer, unassigned; (+)) had a melting point of 220 to 222 °C.

On to `Cc1cc(Nc2cc(-c3cccc(N4CCc5c(cc6n5CCCC6)C4=O)c3CO)cn(C)c2=O)n[nH]1`, for which the melting point was in the range of 199 to 200 °C.

For the compound `O=[N+]([O-])c1cccnc1NCc1ccc(Cl)cc1`, the melting point was 95 to 96 °C.

For the compound `CCCCCCCCCCCCc1cn(C(C(=O)Nc2c(OC)cc(OC)cc2OC)c2ccccc2)cn1` (configuration not stated), the melting point was in the range of 95 to 102 °C.

Take `CCc1cc(-c2nnc3c4ccccc4c(OCc4ncnn4C)nn23)no1`: the melting point fell in the range of 240 to 242 °C.

In turn, `Cc1ccc(Nc2nnc(-c3ccc(SC(F)(F)F)cc3)s2)cc1Cl` yielded a melting point of 215 to 216 °C.

`O=C(CC(=O)Nc1ccccc1Cl)CS(=O)(=O)C(c1ccc(Cl)cc1)c1ccc(Cl)cc1` came in with a melting point of 92 to 95 °C.

For the compound `CC(C)(C)c1cc(SCSc2cc(C(C)(C)C)c(O)c(C(C)(C)C)c2)cc(C(C)(C)C)c1O`, the melting point lay within 94 to 95 °C.

As for `Cc1ccc(C(=O)NC/C=C/c2ccccc2)cc1`, the melting point is 134 °C.

`N#Cc1ccsc1C1=CC(=O)Nc2cc(-c3ccccc3F)c(O)cc2N1` had a melting point of 242 °C.

Turning to `Cc1ccc(C)c(SCCCCCC(=O)O)c1`, the melting point fell in the range of 61 to 62 °C.

Compound `O=C1Nc2c(ccc3c2CCCC3)SC1CCCBr` (configuration not stated) came in with a melting point of 122 to 123 °C.

As to `COc1ccc(S(=O)(=O)c2c(Br)cc(CC(=O)O)cc2Br)cc1C(C)C`, the melting point was 170 to 173 °C.

The compound `N=C(Nc1ccc(Cl)cc1)Nc1ncccc1OCc1c(F)cc(F)cc1F` yielded a melting point of 161 to 162 °C.

`O=C1CCCN1C(=O)Oc1cccc([N+](=O)[O-])c1` came in with a melting point of 130 to 131 °C.

Compound `CNC1(c2ccccc2)CCC(=O)CC1` displayed a melting point of 32 to 38 °C.

`CCCc1nc2c(N)nc3cc(OCc4ccc(C)cc4)ccc3c2n1CC(C)C`: the melting point was 205 to 207 °C.

`Cc1cc(SC2=C(O)CC(CCC3CCCO3)(C(C)C)OC2=O)c(C(C)(C)C)cc1CO` (configuration not stated): the melting point is 57 to 59 °C.

With `O=C1C(=O)c2ccccc2C2=C1SCC1(CCN(CC(O)CN3CCOCC3)CC1)O2` (configuration not stated), the melting point was in the range of 75 to 78 °C.

In turn, `O=c1ccn([C@H]2C=C[C@@H](O)C2)cc1` (racemic) showed a melting point of 188 to 189 °C.

In turn, `CCn1cc(C(=O)O)c(=O)cc1-c1ccccc1` returned a melting point of 166 to 167 °C.

With `COc1cc(OC)nc(NC(=O)NS(=O)(=O)c2ncccc2C(CF)OC(C)=O)n1` (configuration not stated), the melting point was 145 to 147 °C.

`Cc1nc[nH]c1CSCCNC(=S)S` came in with a melting point of 127 to 129 °C.

In turn, `COc1ccc(C2=NN(c3ccc4c(c3)COC4=O)C(=O)[C@H]3CC=CC[C@@H]23)cc1Cl` (relative stereo) had a melting point of 212 to 213 °C.

As to `O=C(NC1CN(Cc2ccccc2)CCN(Cc2ccccc2)C1)c1n[nH]c2ccccc12`, the melting point lay in the range of 115 to 116 °C.

Turning to `N#Cc1ccc(-c2ccc(Br)cc2)cc1`, the melting point lay within 147 to 148 °C.

Compound `CCOC(=O)OCC1(C)COC(=O)OC1` had a melting point of 68 to 69 °C.

Turning to `Nc1ccc(C(=O)NNC(=O)CCCCN2CCC(Cc3ccccc3)CC2)cc1`, the melting point fell in the range of 163 to 165 °C.

Regarding `COc1ccc2c(n1)c(CCNC(=O)c1ccco1)c1n2CCCC1`, the melting point fell in the range of 104 to 105 °C.

For the compound `N#Cc1ccc2c(c1)ncn2-c1cccc(Br)c1`, the melting point was in the range of 168 to 174 °C.

In turn, `COC(=O)COC(=O)C(C)c1ccc2cc(O)ccc2c1` (configuration not stated) registered a melting point of 84.5 to 87 °C.

For the compound `CCCCCCCNC(=O)Nc1ccc(OCC)cc1C(=O)NCC1CCN(C(c2ccccc2)c2ccccc2)CC1`, the melting point was in the range of 188 to 189 °C.

Compound `CCC(Oc1cccc(C(F)(F)F)c1C)C1=NCCN1` (configuration not stated) gave a melting point of 120 to 122 °C.

The compound `CC(C)C(C(=O)O[C@H]1C[C@H](O)C=C2C=C[C@H](C)[C@H](CC[C@@H]3C[C@@H](O)CC(=O)O3)[C@H]21)C(C)C` returned a melting point of 210 to 211 °C.

`O=C(Cc1ccc(F)cc1)Nc1cccc2nc(N[C@@H]3CCc4ccccc43)ccc12`: the melting point turned out to be 207 °C.

The compound `Oc1ccc(OCc2ccccc2)c(Cl)c1` yielded a melting point of 49 to 51 °C.

`Cc1ccc(S(=O)(=O)OC[C@H]2COc3cc(C)c4c(c3O2)CC(=O)N4)cc1` had a melting point of 233 to 235 °C.

In turn, `COc1ccc(C(=O)c2ccc(Cl)cc2F)c(Cl)c1Cl` gave a melting point of 115 to 116 °C.

`CC(C)(C)C1CC(=CO)C(Cl)=C(C=O)C1` (configuration not stated) showed a melting point of 154 to 157 °C.

Regarding `CN(C(=O)c1cccc(Cn2cnc3ccccc32)c1)C1CCCCC1`, the melting point was in the range of 99 to 101 °C.

(Values after a melting point compilation (Tetko et al.; mined from patent text by program, amines drawn as free bases though some values may be those of a salt).)
